Several values for one entry are separate records, joined by “and”; a condition that tells them apart may be missing. Identical values can stand only once.
What was measured:
wt ClpB = target: T1, wt ClpB (Escherichia coli, UniProt P63284); assay: Surface plasmon resonance, immobilized wt ClpB; type: binding
T1 construct: made in house
Description: (§1) ClpB, DnaK, and the NBD of DnaK were extensively dialyzed against the SPR buffer (20-mM Hepes, pH 7.4, 150-mM NaCl, 20-mM MgCl2, 1-mM EDTA, 1-mM DTT). After dialysis, the protein concentration was determined by the Bradford method. The DBeQ–protein interactions were studied using a Biacore T200 instrument (GE Healthcare) at 25 °C. The proteins were diluted to 300 μg/ml in 10-mM sodium acetate buffer (pH 5 for ClpB DnaK or pH 4 for NBD) and immobilized on HC1500M sensor chips (Xantec) by standard amine coupling chemistry as described previously ([70]). A reference flow cell was created by ethyl(dimethylaminopropyl) carbodiimide/N-hydroxysuccinimide activation followed by quenching with 1 M ethanolamine (pH 9.0). Solvent correction curves were obtained at the beginning and end and after every 50 injection cycles by injecting varying DMSO concentrations (4.0, 4.4, 4.6, 4.8, 5.0, 5.2, 5.4, and 5.9% [v/v]). All experiments were performed using a flow rate of 30 μl/min.
(§2) Binding isotherms were obtained with the ligand diluted to different concentrations in the SPR running buffer HBSMTD (20-mM Hepes, pH 7.4, 140-mM NaCl, 20-mM MgCl2, 5% (v/v) DMSO, 0.005% (v/v) Tween-20). Replicate injections were performed for all samples, and a buffer-only injection was performed for every 12 injection cycles. To test the structural integrity of ClpB after immobilization on the sensor chips, we performed control titrations with ATPγS and adenosine. The dissociation constants determined from those experiments were ∼20 μM for ATPγS and ∼2 mM for adenosine. […] Moreover, the immobilized ClpB discriminated between a nucleotide analog and a nucleoside, which indicated an adequate structural integrity of ClpB on the sensor chips.
The resulting sensorgrams were analyzed using Biacore T200 Evaluation Software v3.0 according to the following procedure. Solvent correction curves were generated and applied to all data sets, and all sensorgrams were double-referenced by subtracting the most recent buffer blank injection. The signal immediately before injection stop of these corrected sensorgrams was treated as the binding response. GraphPad Prism was used for nonlinear least-squares fitting of the model assuming either noncooperative or cooperative binding of DBeQ to DnaK and ClpB, respectively.

ClpB W462F = target: T2, ClpB W462F (Escherichia coli, UniProt P63284, W462F); assay: Surface plasmon resonance, immobilized ClpB W462F; type: binding
T2 construct: made in house
Description: as §1, §2
The resulting sensorgrams were analyzed using Biacore T200 Evaluation Software v3.0 according to the following procedure. Solvent correction curves were generated and applied to all data sets, and all sensorgrams were double-referenced by subtracting the most recent buffer blank injection. […]

ClpB E279Q, E678Q = assay: ATPase activity of ClpB Walker B variants E279Q and E678Q; type: biochemical, Escherichia coli; settings: with/without κ-casein
Description: To determine the ATPase activity, ClpB was diluted to 28 μg/ml (49-nM hexamer) in buffer C (50-mM Tris-HCl, pH 7.4, 20-mM MgCl2, 1-mM EDTA, 0.5-mM tris(2-carboxyethyl)phosphine [TCEP]). In some experiments, the ClpB solution was supplemented with 17.4 μg/ml (10 μM) κ-casein. The ClpB aliquots (18 μl) were mixed with 1 μl of the investigated compounds at different concentrations in 100% DMSO or with DMSO as a control. A sample without ClpB was used as a baseline control. After a 10-min preincubation at 37 or 45 °C, the ATP hydrolysis reaction was initiated by adding 1 μl of 100-mM ATP. The samples were incubated for 60 min (basal ClpB activity in the absence of κ-casein) or 15 min (in the presence of κ-casein) at 37 °C or 30 min at 45 °C in the absence of casein. For the E678Q ClpB variant, the incubation time in the presence of κ-casein was 60 min. After incubation, 15 μl of each sample was mixed with 200 μl of the ammonium molybdate/malachite green reagent ([67]) dispensed into a 96-well plate, followed by an addition of 30 μl of 34% sodium citrate ([68]). The plate was agitated inside a Synergy H1 reader (BioTek, Winooski, VT) for 15 min at room temperature, and the samples’ absorbance was measured at 630 nm. The readouts for ClpB-containing samples were corrected for absorbance of samples without ClpB, to account for nonenzymatic production of inorganic phosphate. […]

[1] = test system: ClpB-YFP in dnaK103 E. coli; assay: Confocal microscopy of ClpB-YFP localization; type: cell-based, Escherichia coli; settings: dnaK103, 100-μM DBeQ, 45 °C 30 min
Description: ClpB-YFP and Luciferase-YFP were expressed at low levels in E. coli strains ΔclpB, dnaK103, and dnaK756 as described before ([44]). The expression of ClpB-YFP and YFP-Luciferase was initiated by addition of 200-μM IPTG or 0.02% (w/v) arabinose, respectively. The bacterial cells were cultured at 30 °C with 100-μM DBeQ or DMSO only. Protein translation was stopped by addition of erythromycin (30 μg/ml), and each culture was divided into two samples. One sample remained at 30 °C (control), whereas the other sample was transferred to 45 °C for 30 min (heat-shock conditions).
A thin layer of 1% agarose (TopVision Low Melting Point Agarose, Thermo Scientific) was prepared on a clean microscope glass slide. A small drop of 1% agarose was placed near the frosted end of the glass slide while bringing a second glass slide at a 30 to 45° angle from above, allowing the agarose drop to spread along the contact edge. […] An E. coli culture sample (1 μl) was immediately placed on the agarose-covered glass slide, covered with a cover slip, and used for fluorescence imaging.
Fluorescence imaging was performed using a Carl Zeiss LSM 880 Airyscan confocal microscope equipped with a Plan-Apochromat 63x/1.40 Oil DIC M27 objective coupled with a YFP Filter (excitation at 514 nm, emission at 561 nm, laser strength 0.98%). […]

p97 = test system: p97; parameters: method as in PMID 25685910; settings: cited from earlier work

T2 sequence (P63284 whole entry W462F, looked up): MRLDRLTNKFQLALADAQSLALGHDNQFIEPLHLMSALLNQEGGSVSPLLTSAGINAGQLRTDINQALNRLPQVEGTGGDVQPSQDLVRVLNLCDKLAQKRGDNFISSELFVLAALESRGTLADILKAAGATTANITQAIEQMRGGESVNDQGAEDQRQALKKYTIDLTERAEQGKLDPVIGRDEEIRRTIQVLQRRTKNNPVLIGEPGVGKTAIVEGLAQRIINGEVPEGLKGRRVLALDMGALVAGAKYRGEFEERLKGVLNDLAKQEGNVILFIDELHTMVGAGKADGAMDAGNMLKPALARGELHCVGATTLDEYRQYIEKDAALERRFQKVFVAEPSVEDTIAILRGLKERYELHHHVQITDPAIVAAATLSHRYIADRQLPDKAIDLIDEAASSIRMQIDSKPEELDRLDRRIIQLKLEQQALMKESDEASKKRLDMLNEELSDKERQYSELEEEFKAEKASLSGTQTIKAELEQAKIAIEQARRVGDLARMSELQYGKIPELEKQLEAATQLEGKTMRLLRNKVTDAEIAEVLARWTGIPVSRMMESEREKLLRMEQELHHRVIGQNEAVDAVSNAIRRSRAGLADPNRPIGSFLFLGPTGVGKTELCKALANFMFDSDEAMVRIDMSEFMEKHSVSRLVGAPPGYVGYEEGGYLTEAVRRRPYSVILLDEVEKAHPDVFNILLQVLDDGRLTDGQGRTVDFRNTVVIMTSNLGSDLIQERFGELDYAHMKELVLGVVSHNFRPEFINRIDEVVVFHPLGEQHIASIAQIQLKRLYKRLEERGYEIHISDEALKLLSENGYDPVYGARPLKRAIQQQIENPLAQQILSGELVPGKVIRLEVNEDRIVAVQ
T1 sequence (P63284 whole entry): as the sequence (P63284 whole entry W462F, looked up) above, with F462W counted along it

SMILES: c1ccc(CNc2nc(NCc3ccccc3)c3ccccc3n2)cc1 [DBeQ, N^2,N^4-dibenzylquinazoline-2,4-diamine]
- Bmax (SPR signal at saturation), ClpB (wt ClpB): 1.09 ± 0.02
- Hill coefficient, DBeQ binding to ClpB (wt ClpB; SPR, cooperative binding model): 2.3 ± 0.3 and ~2.3 and > 2
- Kd (wt ClpB; apparent Kd, DBeQ binding to ClpB, SPR, 25 °C, cooperative binding model): 64.4 µM and ~60 µM
- Kd (ClpB W462F): 61.4 ± 4.7 µM
- Bmax (SPR signal at saturation), ClpB W462F (ClpB W462F; SPR): 1.08 ± 0.03
- Hill coefficient, ClpB W462F (ClpB W462F; SPR): 2.4 ± 0.4
- effect on ATPase of the two ATP-binding domains (D1, D2) (ClpB E279Q, E678Q): only the C-terminal one (i.e., D2) showed casein-induced activation and was affected by DBeQ
- ClpB-YFP localization with aggregates [1]: ClpB colocalizes with the aggregates even in dnaK103
- IC50 (p97): ~3 µM

From paper PMC7948422, “Repurposing p97 inhibitors for chemical modulation of the bacterial ClpB–DnaK bichaperone system” (The Journal of Biological Chemistry, 2020)
